Measurements as given in paper PMC5438364, “A broad-spectrum bactericidal lipopeptide with anti-biofilm properties” (Scientific Reports, 2017).
In brackets after ≈: the same amount, converted by molar mass. Where a SMILES comes first, the peptide text is derived from it. [ ]: non-standard residue; d: D form. The star is where a group is joined. Myristoyl = CCCCCCCCCCCCCC(=O)*; 12Ado = NCCCCCCCCCCCC(=O)O

How the values were obtained:
[1] = test system: E. coli; assay type: cell-based, Escherichia coli; conditions: 48 h
Procedure: (§1) Staphylococci, Bacilli, Escherichia, Pseudomonas, Acinetobacter, Salmonella and Klebsiella species were grown in Luria Bertani broth (LB; 5 gr/l NaCl, 5 gr/l yeast extract, 10 gr/l tryptone). Enterococci and E. coli ML-35p were grown in Tryptic Soy Broth (TSB). Listeria and Streptococci were grown in Brain Heart Infusion (BHI). All bacteria were grown over-night at 37 °C with shaking. S. mutans 35668 plated on BHI agar for enumeration was grown for 48 hr. S. mutans UA159 was grown in 5% CO2 enriched atmosphere. Fusobacterium and Porphyromonas were grown in Wilkins-Chalgren growth medium and an anaerobic atmosphere.
(§2) Minimal inhibitory concentration (MIC) was determined using the microdilution assay. […] O.D. at 620 nm was measured (Synergy HT, BioTek Instruments, Winooski, VT, USA), and the MIC was determined as the lowest concentration for which no increase in O.D. was detected.

[2] = test system: E. coli ML-35p; test: Bactericidal kinetics (time-kill); assay type: cell-based, Escherichia coli; conditions: within 2 hours exposure at ≥MIC; 5 × 10^5 CFU/ml, 37 °C
Procedure: (§3) Bactericidal kinetics was assessed by incubating 5 × 10^5 CFU/ml of mid-log-phase bacteria with the OAK for 3 hr at 37 °C with shaking. Aliquots were taken at t = 0, 0.5, 1, 2 and 3 hr, subjected to serial 10-fold dilutions in saline (NaCl = 0.85%) and plated for enumeration after 24–48 hr incubation at 37 °C.

[3] = test system: Gram-positive bacteria (GPB); conditions: 48 h
[4] = Self-assembly in solution by light scattering; assay type: physicochemical; conditions: for critical aggregation concentration: light scattering at 90°, 400 nm
Procedure: To assess the OAK’s self-assembly in solution, serial two-fold dilutions of the OAK (initial concentration of 200 µM) were prepared in phosphate buffered saline (PBS; 10 mM Na2HPO4, 154 mM NaCl, pH = 7.4) and incubated for 2 hr at room temperature (RT). Light scattering at a 90° angle was measured through a 1 nm slit while holding both excitation and emission at 400 nm (Spectrophotometer Fluorolog-3 FL3–22; Horiba Jobin Yvon, Edison, NJ, USA). To evaluate the disassembly of these aggregates upon bacterial exposure, an OAK solution (200 µM) was incubated (2 hr in PBS, at RT) after which, bacteria were added (10^5 CFU/ml) and the light scattering evolution of these suspensions was monitored as described above.

[5] = test system: S. mutans ATCC 35668 biofilm; test: Anti-biofilm activity on pre-formed biofilm; assay type: cell-based, Streptococcus mutans; conditions: ≥0.5 mM, within one hour of exposure, inoculum 10^9 CFU/ml
Procedure: Anti-biofilm activity was evaluated against established biofilms in 96-well plates as follows. 200 µl of mid-log-phase S. mutans 35668 at 5 × 10^5 CFU/ml in BHI containing 2% sucrose were placed in each well, and plates were incubated for 24 hr at 37 °C without shaking. Unattached cells were removed by decanting the plates and biofilms were washed three times with milliQ water. Solutions of the tested compounds were placed on the biofilms for up to 3 hr at 37 °C without shaking. Plates were decanted in 0.5 hr intervals and biofilms were washed three times with milliQ water to remove any compound residues. Biofilms were scraped from the bottom of the wells, suspended in BHI and sonicated for 5 min in a sonication bath, subjected to serial 10-fold dilutions in saline and plated on BHI agar for enumeration.

[6] = test system: S. mutans ATCC 35668; test: Bactericidal kinetics (time-kill); assay type: cell-based, Streptococcus mutans
Procedure: as §3

[7] = test system: Fusobacterium; assay type: cell-based, Fusobacterium nucleatum; conditions: 48 h
Text: (§4) Gram-negative bacteria tested were: ATCC strains Escherichia coli 25922, 43894, Pseudomonas aeruginosa 27853, 9027, Acinetobacter baumannii 19606, A. caloaceticus 31299, Salmonella Typhimurium 14028, Fusobacterium nucleatum 23726, Porphyromonas gingivalis 53977, clinical isolates E. coli 14182, 14384, U-16327, U-16329, P. aeruginosa 1278, Klebsiella pneumoniae 1287, K2–224, C2, A. baumannii 1279, 1280, 1281, F. nucleatum PK 1594, the engineered E. coli ML-35p and the isogenic K-12 pair AG100, AG100a (ΔacrAB). Dental related bacteria (generous gift of Prof. Doron Steinberg and Gilad Bachrach from the Hebrew University of Jerusalem) appear in bold characters.
as §1, with “S. mutans UA159 was grown in 5% CO2 enriched atmosphere. Fusobacterium and Porphyromonas were grown in Wilkins-Chalgren growth medium and an anaerobic atmosphere.” left out
as §2

[8] = test system: Streptococci; assay type: cell-based
Procedure: as §1
(§5) Minimal inhibitory concentration (MIC) was determined using the microdilution assay. Mid-log-phase bacteria at 5 × 10^5 CFU/ml were incubated in a 96-well plate with serial two-fold dilutions of the tested compound for 18–24 hr at 37 °C (final volume of 200 µl). O.D. at 620 nm was measured (Synergy HT, BioTek Instruments, Winooski, VT, USA), and the MIC was determined as the lowest concentration for which no increase in O.D. was detected.

[9] = test system: Listeria; assay type: cell-based
Procedure: as §1, §5

[10] = test system: Enterococci; assay type: cell-based
Procedure: as §1, §5

[11] = test system: Staphylococci; assay type: cell-based
Procedure: as §1, §5

[12] = test system: E. coli AG100A (ΔacrAB); assay type: cell-based, Escherichia coli; conditions: efflux deletion-mutant AG100A
Text: as §4, §5

[13] = test system: E. coli AG100; assay type: cell-based, Escherichia coli; conditions: wild type AG100
Text: as §4, §5

[14] = test system: S. mutans; test: microbe, parasite or virus in culture; assay type: cell-based, Streptococcus mutans
Procedure: as §1, §5

With `CCCCCCCCCCCCCC(=O)N[C@@H](CCCCN)C(=O)N[C@@H](CCCCN)C(=O)NCCCCCCCCCCCC(=O)N[C@@H](CCCCN)C(N)=O` [C14KKc12K] (Myristoyl-KK[12Ado]K-NH2) the “MIC E.c.” value [1] was 3.12 µM, the reduction of viability [2] was over 2 log-unit and the MIC50 [3] was 3 µM (≈ 2.43 µg/mL). For the same molecule, the “disaggregation in presence of bacteria (light scattering)” value ([4]; OAK 200 µM in PBS, 2 hr RT, then 10^5 CFU/ml S. aureus or E. coli, compared with C12KKc12K) was “greater tendency to disaggregate in presence of bacteria”, the critical aggregation concentration ([4]; PBS pH 7.4, 2 hr at RT) was 23 ± 3 µM and the “concentration of sharp divergence of light scattering pattern (higher amplitudes)” value ([4]; PBS pH 7.4, 2 hr at RT, two-fold dilutions from 200 µM) was ~ 20 µM. For the same molecule, the critical aggregation concentration ([4]; supernatant of centrifuged saliva) was 8 ± 1 µM, the “killing of the initial inoculum in preformed biofilm” value [5] was over 99% and the bactericidal concentration ([6]; time-kill kinetics in BHI) was 1.56 µM. The reduction of viability ([6]; within 2 hours exposure to 1.56 µM, 5 × 10^5 CFU/ml, 37 °C) was ~ 2 log units, the MIC range [7] was 6.25 µM and the MIC range [8] was 0.78 to 3.12 µM. The MIC range [9] was 3.12 µM, the MIC range [10] was 3.12 to 6.25 µM and the MIC range [11] was 1.56 to 3.12 µM. It also gave an MIC [12] of 3 µM, an MIC [13] of 3 µM and an MIC [14] of 0.78 µM.
